Data from article doi:10.1101/2024.05.30.596624v1 (biorxiv, 2024).
Converted amounts (≈) assume the structure as drawn.

What was measured:
[1] = system: HepG2; test: cells; conditions: Homo sapiens, HepG2, read-out: Hu HepG2 EC50
[2] = in vitro; conditions: human, hepatocytes
[3] = in vitro; conditions: human, liver microsomes
[4] = target: AMPK α1β1γ1 (Homo sapiens, UniProt Q13131+Q9Y478); test: Caliper mobility shift kinase assay, FAM-SAMS peptide; assay type: biochemical
[5] = physchem; conditions: 1-octanol/phosphate buffer, pH 7.4
[6] = in vitro; conditions: human, plasma
[7] = in vitro; conditions: mouse, hepatocytes
[8] = in vitro; conditions: human, Caco-2
[9] = in vitro; conditions: rat, hepatocytes
[10] = physchem; conditions: aqueous phosphate buffer, pH 7.4, aqueous buffer
[11] = target: AMPK α1β2γ1 (Homo sapiens, UniProt O43741+Q13131); test: Caliper mobility shift kinase assay, FAM-SAMS peptide; assay type: biochemical
Sequence of AMPK α1β2γ1 (Q13131 whole entry): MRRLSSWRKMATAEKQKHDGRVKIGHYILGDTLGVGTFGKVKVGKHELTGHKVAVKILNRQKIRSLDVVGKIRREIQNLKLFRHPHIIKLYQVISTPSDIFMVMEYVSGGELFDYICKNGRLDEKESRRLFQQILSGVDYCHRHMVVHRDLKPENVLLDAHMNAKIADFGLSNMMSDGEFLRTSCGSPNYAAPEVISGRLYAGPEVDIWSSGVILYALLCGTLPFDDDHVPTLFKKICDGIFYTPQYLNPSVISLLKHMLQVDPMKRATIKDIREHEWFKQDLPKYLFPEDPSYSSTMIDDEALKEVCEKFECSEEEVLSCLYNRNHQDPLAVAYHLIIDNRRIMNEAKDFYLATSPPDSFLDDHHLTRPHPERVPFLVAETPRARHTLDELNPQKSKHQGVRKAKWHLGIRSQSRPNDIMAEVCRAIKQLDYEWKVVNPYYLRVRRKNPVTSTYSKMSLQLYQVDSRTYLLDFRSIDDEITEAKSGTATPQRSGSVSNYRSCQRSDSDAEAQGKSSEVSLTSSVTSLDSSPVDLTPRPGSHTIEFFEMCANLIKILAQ
Sequence of AMPK α1β2γ1 (O43741 whole entry): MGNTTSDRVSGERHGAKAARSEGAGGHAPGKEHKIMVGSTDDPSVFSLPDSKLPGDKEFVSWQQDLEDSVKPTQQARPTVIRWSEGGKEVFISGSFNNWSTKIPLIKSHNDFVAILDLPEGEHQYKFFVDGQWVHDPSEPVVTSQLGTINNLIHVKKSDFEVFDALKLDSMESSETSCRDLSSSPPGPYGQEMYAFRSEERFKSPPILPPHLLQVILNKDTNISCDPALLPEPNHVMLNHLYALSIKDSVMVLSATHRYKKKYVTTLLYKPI
Sequence of AMPK α1β2γ1 (P54619 whole entry partner): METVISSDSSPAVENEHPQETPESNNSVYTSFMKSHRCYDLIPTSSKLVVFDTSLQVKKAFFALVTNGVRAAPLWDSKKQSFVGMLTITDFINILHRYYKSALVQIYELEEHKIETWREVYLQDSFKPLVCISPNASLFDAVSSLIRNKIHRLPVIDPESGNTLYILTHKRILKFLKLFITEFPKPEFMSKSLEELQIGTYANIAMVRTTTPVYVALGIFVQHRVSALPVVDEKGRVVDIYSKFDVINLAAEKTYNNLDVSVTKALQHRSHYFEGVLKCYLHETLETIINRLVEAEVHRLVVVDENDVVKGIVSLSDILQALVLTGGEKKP

Sequence of AMPK α1β1γ1 (Q13131 whole entry): as the sequence (Q13131 whole entry) above
Sequence of AMPK α1β1γ1 (Q9Y478 2-270): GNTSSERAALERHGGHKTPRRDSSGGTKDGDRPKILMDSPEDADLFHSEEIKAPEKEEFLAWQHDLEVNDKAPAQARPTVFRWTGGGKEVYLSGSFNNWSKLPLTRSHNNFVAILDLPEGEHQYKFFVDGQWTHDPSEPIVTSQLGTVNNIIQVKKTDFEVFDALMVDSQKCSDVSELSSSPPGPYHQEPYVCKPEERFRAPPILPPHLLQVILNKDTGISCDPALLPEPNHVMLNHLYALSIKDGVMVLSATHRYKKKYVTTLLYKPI
Sequence of AMPK α1β1γ1 (P54619 whole entry partner): as the sequence (P54619 whole entry partner) above

EC50 [1]: 83.2 nM | hepatocyte CLint [2]: < 1 µL/min/1e6 cells | microsomal CLint [3]: < 3 µL/min/mg | EC50 [4]: 20 ± 9.5 nM | logD [5]: 2.8 | fraction unbound [6]: 0.037 | hepatocyte CLint [7]: 8.6 µL/min/1e6 cells | Papp [8]: 26 ×10⁻⁶ cm/s | hepatocyte CLint [9]: < 1.4 µL/min/1e6 cells | solubility at 27 h [10]: 8 µM (≈ 4.33 µg/mL) | EC50 [11]: 63.1 ± 14.7 nM
SMILES: CS(C)(=O)=Nc1ccc(-c2ccc(-c3nc4[nH]c(O[C@@H]5CO[C@H]6[C@@H]5OC[C@H]6O)nc4cc3Cl)cc2)cc1 [BI9774]
